Laboratory results: patent US20120046306A1, “Substituted Heteroaryl Spiropyrrolidine MDM2 Antagonists” (priority 2010, published 2012)

Each compound was assayed against interaction between p53 and MDM2 proteins (Homo sapiens, UniProt Q00987) (assay: HTRF assay of inhibition of p53-MDM2 interaction). Details: GST-MDM2 and biotinylated p53 peptide, bsa: 0.02%.
Assay type: binding
Experimental: The ability of the compounds to inhibit the interaction between p53 and MDM2 proteins was measured by an HTRF (homogeneous time-resolved fluorescence) assay in which recombinant GST-tagged MDM2 binds to a peptide that resembles the MDM2-interacting region of p53. Binding of GST-MDM2 protein and p53-peptide (biotinylated on its N-terminal end) is registered by the FRET (fluorescence resonance energy transfer) between Europium (Eu)-labeled anti-GST antibody and streptavidin-conjugated Allophycocyanin (APC).
Add 20 uL streptavidin-APC and Eu-anti-GST antibody mixture (6 nM Eu-anti-GST and 60 nM streptavidin-APC working solution) in TBS buffer with 0.2% BSA, shake at room temperature for 30 minutes and read using a TRF-capable plate reader at
If not specified, the reagents were purchased from Sigma Chemical Co.

Chain of interaction between p53 and MDM2 proteins (Q00987 whole entry): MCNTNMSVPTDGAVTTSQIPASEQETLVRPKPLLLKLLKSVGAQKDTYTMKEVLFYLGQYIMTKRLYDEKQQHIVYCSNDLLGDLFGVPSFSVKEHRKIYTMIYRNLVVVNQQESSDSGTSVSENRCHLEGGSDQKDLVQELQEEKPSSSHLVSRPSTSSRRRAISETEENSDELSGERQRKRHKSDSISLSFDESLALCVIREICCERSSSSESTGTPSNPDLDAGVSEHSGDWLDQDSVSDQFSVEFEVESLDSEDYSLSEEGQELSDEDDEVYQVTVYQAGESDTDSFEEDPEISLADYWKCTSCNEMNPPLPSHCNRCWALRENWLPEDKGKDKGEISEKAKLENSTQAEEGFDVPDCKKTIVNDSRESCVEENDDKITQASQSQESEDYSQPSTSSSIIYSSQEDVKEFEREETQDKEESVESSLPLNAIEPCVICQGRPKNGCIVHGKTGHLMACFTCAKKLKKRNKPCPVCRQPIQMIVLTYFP

Row | IC50 | SMILES
1 | 0.0324 µM | COC(=O)c1ccc(NC(=O)[C@@H]2N[C@@H](CC(C)(C)C)[C@@]3(C(=O)Nc4ccncc43)[C@H]2c2cccc(Cl)c2F)c(OC)c1 (racemic) [Example 6, methyl rac-4-((2S,3R,4S,5R)-4-(3-chloro-2-fluorophenyl)-2-neopentyl-2′-oxo-1′,2′-dihydrospiro[pyrrolidine-3,3′-pyrrolo[3,2-c]pyridine]-5-ylcarboxamido)-3-methoxybenzoate]
2 | 0.0303 µM | COC(=O)c1ccc(NC(=O)[C@@H]2N[C@@H](CC(C)(C)C)[C@@]3(C(=O)Nc4ncccc43)[C@H]2c2cccc(Cl)c2F)c(OC)c1 (racemic) [Example 13, methyl rac-4-((2S,3R,4S,5R)-4-(3-chloro-2-fluorophenyl)-2-neopentyl-2′-oxo-1′,2′-dihydrospiro[pyrrolidine-3,3′-pyrrolo[2,3-b]pyridine]-5-ylcarboxamido)-3-methoxybenzoate]
3 | 0.0105 µM | CC(C)(C)C[C@@H]1N[C@@H](C(=O)Nc2ccc(C(=O)O)cc2)[C@H](c2cccc(Cl)c2F)[C@]12C(=O)Nc1cc(Cl)ncc12 (racemic) [Example 28, rac-4-((2S,3R,4S,5R)-6′-chloro-4-(3-chloro-2-fluorophenyl)-2-neopentyl-2′-oxo-1′,2′-dihydrospiro[pyrrolidine-3,3′-pyrrolo[3,2-c]pyridine]-5-ylcarboxamido)benzoic acid]
4 | 0.0145 µM | COC(=O)c1ccc(NC(=O)[C@@H]2N[C@@H](CC(C)(C)C)[C@@]3(C(=O)Nc4nc(Cl)ccc43)[C@H]2c2cccc(Cl)c2F)c(OC)c1 (racemic) [Example 35, methyl rac-4-((2S,3R,4S,5R)-6′-chloro-4-(3-chloro-2-fluorophenyl)-2-neopentyl-2′-oxo-1′,2′-dihydrospiro[pyrrolidine-3,3′-pyrrolo[2,3-b]pyridine]-5-ylcarboxamido)-3-methoxybenzoate]
5 | 0.0345 µM | COc1cc(C(=O)O)ccc1NC(=O)[C@@H]1N[C@@H](CC(C)(C)C)[C@@]2(C(=O)Nc3ccc(Cl)nc32)[C@H]1c1cccc(Cl)c1F (racemic) [Example 47, rac-4-((2S,3S,4S,5R)-5′-chloro-4-(3-chloro-2-fluorophenyl)-2-neopentyl-2′-oxo-1′,2′-dihydrospiro[pyrrolidine-3,3′-pyrrolo[3,2-b]pyridine]-5-ylcarboxamido)-3-methoxybenzoic acid]
6 | 0.0146 µM | COc1cc(C(N)=O)ccc1NC(=O)[C@@H]1N[C@@H](CC(C)(C)C)[C@@]2(C(=O)Nc3cc(Cl)cnc32)[C@H]1c1cccc(Cl)c1 (racemic) [Example 63, rac-(2S,3S,4R,5R)-N-(4-carbamoyl-2-methoxyphenyl)-6′-chloro-4-(3-chlorophenyl)-2-neopentyl-2′-oxo-1′,2′-dihydrospiro[pyrrolidine-3,3′-pyrrolo[3,2-b]pyridine]-5-carboxamide]
7 | 1.83 µM | COC(=O)c1ccc(NC(=O)[C@@H]2N[C@@H](CC(C)(C)C)[C@@]3(C(=O)Nc4cc(Cl)cnc43)[C@H]2c2cccc(Br)c2F)c(OC)c1 (racemic) [Example 66, methyl rac-4-{(2S,3R,4S,5R)-4-(3-bromo-2-fluorophenyl)-6′-chloro-2-neopentyl-2′-oxo-1′,2′-dihydrospiro[pyrrolidine-3,3′-pyrrolo[3,2-b]pyridine]-5-ylcarboxamido}-3-methoxybenzoate]
8 | 0.0129 µM | COc1cc(C(N)=O)ccc1NC(=O)[C@@H]1N[C@@H](CC(C)(C)C)[C@@]2(C(=O)Nc3cc(Cl)cnc32)[C@H]1c1cccc(Br)c1F (racemic) [Example 69, rac-(2S,3S,4S,5R)-4-(3-bromo-2-fluorophenyl)-N-(4-carbamoyl-2-methoxyphenyl)-6′-chloro-2-neopentyl-2′-oxo-1′,2′-dihydrospiro[pyrrolidine-3,3′-pyrrolo[3,2b]pyridine]-5-carboxamide]
